In US9242993B2, “Morpholino substituted bicyclic pyrimidine urea or carbamate derivatives as mTOR inhibitors” (CELLZOME LIMITED, priority 2011, dated 2016):

Assays:
[1] = tested on: S6RP serine-240/244 phosphorylation; assay: In vitro phospho-S6 cellular assay; assay type: cell-based; conditions: Homo sapiens; HEK293T/17 cells, 2 hours; read-out: pS6 inhibition value (IC50), activity level
From the text: Activation of mTOR signaling results in phosphorylation of several downstream targets. In cells, mTOR exists in two different protein complexes. The mTOR Complex-1 (mTORC1) phosphorylates and activates S6 Kinase 1 (S6K1) and S6 Kinase 2 (S6K2) (also known as p70S6K) which then phosphorylate S6 Ribosomal Protein (S6RP) (also known as RPS6)3. S6RP is phosphorylated on serine 235, serine 236, serine 240 and serine 244 by both pS6K1 and pS6K2. The mTOR Complex-2 (mTORC2) phosphorylates AKT on serine 473 which activates the AKT signaling pathway.
The assay measures a test compound's inhibition of S6RP serine-240/244 phosphorylation and inhibition of Akt serine-473 phosphorylation in human embryonic kidney derived HEK293T/17 cells (ATCC CRL-11268).
The HEK293T/17 cell line is maintained in DMEM media (Invitrogen catalogue number 41965-039) supplemented with 10% FCS at 37° C. in a 5% CO2 humidified incubator.
Cells are seeded in 96-well plates at 40,000 cells/well (pS6RP S240/244 assay) or 80,000 cells/well (pAkt S473 assay) in 90 μl growth media (DMEM, 2% FCS). Plates are incubated for 1 hour in a humidified incubator to allow the cells to adhere. Cells are treated with 8 concentrations of test compounds or DMSO alone for controls (final DMSO concentration 0.1%) and incubated at 37° C. for 2 hours. Then 20 μl of 5× concentrated lysis buffer (750 mM NaCl, 100 mM Tris pH7.4, 5 mM ADTA, 5 mM EGTA, 5% Triton X-100) is added, plates are sealed and incubated for 15 minutes at 4° C. with gentle shaking. After cell lysis, 25 μl cell lysate is transferred to a MesoScale plate coated with an antibody to pS6RP Ser240/244 (MesoScale Discovery K150DGD-3) or an antibody to pAkt Ser 473 (MesoScale Discovery K151DGD-3). Plates have been blocked before by incubation with 150 μl MesoScale Discovery Blocking Solution-A for 1 hour at room temperature followed by washing with 150 μl 1× Tris wash buffer per well. After the transfer of the cell lysate to the MSD plate, the pS6RP (or pAkt) protein is captured on the coated antibody by incubation at room temperature for 1 hour with gentle shaking. After the capture step the plate is washed three times with 150 μl of 1× Tris wash buffer per well. Then 25 μl detection antibody conjugated with a Sulfo-Tag is added and incubated for 1 hour at room temperature with gentle shaking. Subsequently the antibody solution is removed and the plate is washed 3 times with 150 μl 1× Tris wash buffer per well and 150 μl Read buffer is added. The plates are analysed on a MSD 2400 Plate Reader (MesoScale Discovery). Data analysis is performed using nonlinear regression for a sigmoidal dose-response with a variable slope.

[2] = target: mTOR (Homo sapiens, UniProt P42345); assay: biochemical
[3] = target: DNA-dependent protein kinase (DNA-PK) (Homo sapiens, UniProt P78527); assay: biochemical
Sequence of DNA-dependent protein kinase (DNA-PK) (P78527 whole entry): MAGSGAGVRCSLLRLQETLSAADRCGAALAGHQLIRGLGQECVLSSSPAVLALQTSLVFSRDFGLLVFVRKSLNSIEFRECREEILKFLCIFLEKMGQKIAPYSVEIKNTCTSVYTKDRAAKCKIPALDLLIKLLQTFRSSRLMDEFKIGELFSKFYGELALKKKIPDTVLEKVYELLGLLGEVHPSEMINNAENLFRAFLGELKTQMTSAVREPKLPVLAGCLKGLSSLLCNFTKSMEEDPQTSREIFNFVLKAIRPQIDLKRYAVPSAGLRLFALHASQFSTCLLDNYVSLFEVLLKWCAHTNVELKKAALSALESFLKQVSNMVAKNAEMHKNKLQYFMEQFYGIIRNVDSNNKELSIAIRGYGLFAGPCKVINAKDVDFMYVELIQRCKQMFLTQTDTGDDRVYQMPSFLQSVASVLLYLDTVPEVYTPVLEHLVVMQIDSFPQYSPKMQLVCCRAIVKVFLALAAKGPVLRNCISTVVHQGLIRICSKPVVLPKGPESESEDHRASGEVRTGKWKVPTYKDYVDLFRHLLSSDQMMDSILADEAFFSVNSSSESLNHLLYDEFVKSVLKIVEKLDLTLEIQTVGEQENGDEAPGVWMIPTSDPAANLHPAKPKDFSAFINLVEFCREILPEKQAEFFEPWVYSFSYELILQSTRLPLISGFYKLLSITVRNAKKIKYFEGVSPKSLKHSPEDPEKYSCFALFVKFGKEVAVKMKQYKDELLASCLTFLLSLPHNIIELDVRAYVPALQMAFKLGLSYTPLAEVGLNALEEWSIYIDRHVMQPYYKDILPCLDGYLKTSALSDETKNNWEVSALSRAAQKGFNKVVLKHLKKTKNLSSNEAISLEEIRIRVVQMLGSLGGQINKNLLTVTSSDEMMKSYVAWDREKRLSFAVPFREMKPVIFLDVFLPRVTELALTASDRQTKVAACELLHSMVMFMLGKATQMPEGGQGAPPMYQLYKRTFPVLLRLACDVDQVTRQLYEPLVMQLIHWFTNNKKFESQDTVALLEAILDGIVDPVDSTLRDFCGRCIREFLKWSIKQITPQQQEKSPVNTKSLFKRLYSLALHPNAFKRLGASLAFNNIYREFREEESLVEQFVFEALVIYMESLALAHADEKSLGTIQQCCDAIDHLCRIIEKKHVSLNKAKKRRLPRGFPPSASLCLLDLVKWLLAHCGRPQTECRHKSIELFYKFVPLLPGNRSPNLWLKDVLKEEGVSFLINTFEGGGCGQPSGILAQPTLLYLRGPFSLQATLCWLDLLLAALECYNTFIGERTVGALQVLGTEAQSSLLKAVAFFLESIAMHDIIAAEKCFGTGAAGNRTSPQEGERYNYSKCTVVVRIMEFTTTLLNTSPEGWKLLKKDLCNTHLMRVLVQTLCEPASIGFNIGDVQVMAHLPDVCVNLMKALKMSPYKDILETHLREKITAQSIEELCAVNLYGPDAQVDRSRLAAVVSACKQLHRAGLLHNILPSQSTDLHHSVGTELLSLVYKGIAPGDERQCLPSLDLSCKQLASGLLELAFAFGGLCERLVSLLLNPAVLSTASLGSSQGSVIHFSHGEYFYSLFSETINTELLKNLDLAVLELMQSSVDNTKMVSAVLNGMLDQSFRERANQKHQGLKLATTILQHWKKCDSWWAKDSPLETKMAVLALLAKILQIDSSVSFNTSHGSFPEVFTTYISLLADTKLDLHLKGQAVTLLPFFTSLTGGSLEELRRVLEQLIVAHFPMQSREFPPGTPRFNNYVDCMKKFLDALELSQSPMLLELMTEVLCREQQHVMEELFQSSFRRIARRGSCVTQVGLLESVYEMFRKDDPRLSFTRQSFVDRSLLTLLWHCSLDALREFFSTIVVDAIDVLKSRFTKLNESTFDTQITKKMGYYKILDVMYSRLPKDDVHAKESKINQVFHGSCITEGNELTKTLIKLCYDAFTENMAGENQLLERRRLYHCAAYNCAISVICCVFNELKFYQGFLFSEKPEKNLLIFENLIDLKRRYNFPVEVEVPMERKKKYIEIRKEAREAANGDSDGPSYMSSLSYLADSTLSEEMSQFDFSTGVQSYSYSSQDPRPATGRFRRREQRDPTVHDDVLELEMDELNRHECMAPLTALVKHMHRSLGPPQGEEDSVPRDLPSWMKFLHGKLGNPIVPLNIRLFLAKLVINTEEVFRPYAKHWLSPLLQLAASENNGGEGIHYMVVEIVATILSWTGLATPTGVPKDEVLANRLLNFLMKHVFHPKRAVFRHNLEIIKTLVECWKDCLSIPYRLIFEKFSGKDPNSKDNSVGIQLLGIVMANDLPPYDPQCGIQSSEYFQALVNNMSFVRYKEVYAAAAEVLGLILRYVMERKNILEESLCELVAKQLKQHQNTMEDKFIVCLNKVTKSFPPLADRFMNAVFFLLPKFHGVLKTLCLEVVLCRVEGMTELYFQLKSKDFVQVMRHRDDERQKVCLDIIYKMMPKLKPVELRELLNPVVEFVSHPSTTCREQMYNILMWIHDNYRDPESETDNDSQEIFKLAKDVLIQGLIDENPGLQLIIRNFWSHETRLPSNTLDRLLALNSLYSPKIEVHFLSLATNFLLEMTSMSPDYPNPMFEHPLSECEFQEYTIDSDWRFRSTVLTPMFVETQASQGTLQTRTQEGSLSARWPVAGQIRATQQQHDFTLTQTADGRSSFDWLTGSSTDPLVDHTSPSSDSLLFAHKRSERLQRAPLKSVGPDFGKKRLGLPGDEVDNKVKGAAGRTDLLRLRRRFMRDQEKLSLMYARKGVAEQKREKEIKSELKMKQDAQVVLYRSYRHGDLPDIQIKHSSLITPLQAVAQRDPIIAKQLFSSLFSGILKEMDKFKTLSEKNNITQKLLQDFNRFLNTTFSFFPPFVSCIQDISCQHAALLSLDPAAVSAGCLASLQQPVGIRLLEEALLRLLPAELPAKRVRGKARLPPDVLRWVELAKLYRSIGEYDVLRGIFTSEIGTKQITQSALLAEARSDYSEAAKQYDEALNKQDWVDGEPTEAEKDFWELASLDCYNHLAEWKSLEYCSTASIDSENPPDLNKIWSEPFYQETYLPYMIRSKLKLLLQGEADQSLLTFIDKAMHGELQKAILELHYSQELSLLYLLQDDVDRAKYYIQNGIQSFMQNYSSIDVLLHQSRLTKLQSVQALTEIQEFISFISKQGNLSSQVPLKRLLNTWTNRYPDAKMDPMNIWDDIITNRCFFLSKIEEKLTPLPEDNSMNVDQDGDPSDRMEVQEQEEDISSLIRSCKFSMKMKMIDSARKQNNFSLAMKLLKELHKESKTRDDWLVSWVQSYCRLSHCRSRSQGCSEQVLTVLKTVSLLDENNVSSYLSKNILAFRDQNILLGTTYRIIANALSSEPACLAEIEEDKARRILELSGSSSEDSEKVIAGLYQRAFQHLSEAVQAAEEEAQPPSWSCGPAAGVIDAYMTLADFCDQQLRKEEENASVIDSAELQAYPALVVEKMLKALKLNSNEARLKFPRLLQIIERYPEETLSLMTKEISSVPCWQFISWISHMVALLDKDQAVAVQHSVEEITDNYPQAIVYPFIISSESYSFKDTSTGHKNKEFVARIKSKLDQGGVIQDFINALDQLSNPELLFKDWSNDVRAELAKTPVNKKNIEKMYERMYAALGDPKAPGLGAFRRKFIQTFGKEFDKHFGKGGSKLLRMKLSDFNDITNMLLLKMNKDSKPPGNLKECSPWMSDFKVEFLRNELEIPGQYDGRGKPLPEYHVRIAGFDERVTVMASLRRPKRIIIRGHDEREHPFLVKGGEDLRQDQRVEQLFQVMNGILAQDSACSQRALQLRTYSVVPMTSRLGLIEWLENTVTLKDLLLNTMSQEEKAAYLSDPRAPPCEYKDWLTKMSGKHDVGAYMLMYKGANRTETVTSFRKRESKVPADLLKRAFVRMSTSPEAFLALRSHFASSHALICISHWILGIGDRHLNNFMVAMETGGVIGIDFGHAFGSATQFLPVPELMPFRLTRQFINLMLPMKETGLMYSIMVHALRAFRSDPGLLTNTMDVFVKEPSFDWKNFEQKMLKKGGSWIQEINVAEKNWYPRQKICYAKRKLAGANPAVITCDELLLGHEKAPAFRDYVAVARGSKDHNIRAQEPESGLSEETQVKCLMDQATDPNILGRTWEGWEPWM

[4] = tested on: IFNγ release in whole blood; assay: In vitro human whole blood assay (IFNγ release); assay type: cell-based; conditions: αCD3/αCD28 and IL-2 stimulation, 18 hours, read-out: WB inhibition value (pIC50) (converted)
Protocol: This assay measures IFNγ release in whole blood after αCD3/αCD28 and IL-2 treatment. The whole blood contains circulating T lymphocytes; αCD3/αCD28 stimulation mimics antigen receptor signalling, resulting in epigenetic changes to the IFNG gene locus, such that when IL-2 is added, IFNγ is produced.
Human whole blood, with Na-heparin as the anticoagulant, is obtained from Clinical Trials Laboratory Services. Blood is diluted 1.4 times with RPMI 1640 (Lonza, BE12-167F) and 175 μl/well is distributed in a low evaporation 96-well plates (Falcon, BD Labware, 353072). Blood is treated with 10 concentrations of test compounds or DMSO alone for controls (final DMSO concentration 0.2%) and incubated at 37° C. for 1 hour. Blood is then stimulated with 1 μg/ml αCD3 (R&D Systems, MAB100), 1 μg/ml αCD28 (BD Pharmingen, 555725) and IL-2 at 10 ng/ml (Peprotech, 200-02). Blood is then left to incubate at 37° C. for 18 hours. After, plates are spun at 250 g for 5 minutes to pellet blood cells and 25 μl of plasma is transferred to a MesoScale plate coated with an antibody to IFNγ (MesoScale Discovery K151AEC-2) containing 25 μl/well MesoScale Discovery Blocking Solution-2. Plates have been blocked by incubating with 25 μl/well MesoScale Discovery Blocking Solution-2 for 30 minutes at room temperature. After the transfer of sera to the MSD plate, the IFNγ protein is captured on the coated antibody by incubation at room temperature for 2 hour with gentle shaking. After the capture step the plate is washed three times with 150 μl/well of 1×PBS-Tween wash buffer and 25 μl/well detection antibody conjugated with a Sulfo-Tag is added and incubated for 2 hours at room temperature with gentle shaking. Subsequently the antibody solution is removed and the plate is washed 3 times with 150 μl/well 1×PBS-Tween wash buffer and 150 μl/well MesoScale Discovery Read buffer is added. The plates are analysed on a MSD 2400 Plate Reader (MesoScale Discovery). Data analysis is performed using nonlinear regression for a sigmoidal dose-response with a variable slope.

SMILES | IC50 [1] [nM] | IC50 [2] [nM] | IC50 [3] [nM] | IC50 [4] [nM]
O=C(NCCO)Nc1ccc(-c2nc3c(c(N4CC5CCC(C4)O5)n2)CS(=O)(=O)C3)cc1 [Example 16, 1-(4-(4-(8-oxa-3-azabicyclo[3.2.1]octan-3-yl)-6,6-dioxido-5,7-dihydrothieno[3,4-d]pyrimidin-2-yl)phenyl)-3-(2-hydroxyethyl)urea] | 1000 to 10000 | < 100 | > 10000 | 
O=C(Nc1ccc(-c2nc3c(c(N4CCOCC4)n2)CS(=O)(=O)C3)cc1)NC1CC1 [Example 18, 1-cyclopropyl-3-(4-(4-morpholino-6,6-dioxido-5,7-dihydrothieno[3,4-d]pyrimidin-2-yl)phenyl)urea] | 100 to 1000 | < 100 | > 10000 | 
O=C(NCCF)Nc1ccc(-c2nc3c(c(N4CC5CCC(C4)O5)n2)CS(=O)(=O)C3)cc1 [Example 22, 1-(4-(4-(8-oxa-3-azabicyclo[3.2.1]octan-3-yl)-6,6-dioxido-5,7-dihydrothieno[3,4-d]pyrimidin-2-yl)phenyl)-3-(2-fluoroethyl)urea] | 100 to 1000 | < 100 | > 10000 | 
O=C(Nc1ccc(-c2nc3c(c(N4C5CCC4COC5)n2)CS(=O)(=O)C3)cc1)NC1CC1 [Example 26, 1-(4-(4-(3-oxa-8-azabicyclo[3.2.1]octan-8-yl)-6,6-dioxido-5,7-dihydrothieno[3,4-d]pyrimidin-2-yl)phenyl)-3-cyclopropylurea] | < 100 | < 100 | > 10000 | 
C[C@H]1COCCN1c1nc(-c2ccc(NC(=O)NCCCF)cc2)nc2c1CS(=O)(=O)C2 [Example 28, (S)-1-(3-fluoropropyl)-3-(4-(4-(3-methylmorpholino)-6,6-dioxido-5,7-dihydrothieno[3,4-d]pyrimidin-2-yl)phenyl)urea] | 100 to 1000 | 100 to 1000 | > 10000 | 
O=C(NCCCF)Nc1ccc(-c2nc3c(c(N4CC5CCC(C4)O5)n2)CS(=O)(=O)C3)cc1 [Example 29, 1-(4-(4-(8-oxa-3-azabicyclo[3.2.1]octan-3-yl)-6,6-dioxido-5,7-dihydrothieno[3,4-d]pyrimidin-2-yl)phenyl)-3-(3-fluoropropyl)urea] | 100 to 1000 | 100 to 1000 | > 10000 | 
CCNC(=O)Nc1ccc(-c2nc(N3CCOC[C@@H]3C)c3c(n2)C(C)(C)S(=O)(=O)C3C)cc1 (stereo partly drawn) [Example 42, 1-ethyl-3-(4-(5,7,7-trimethyl-4-((S)-3-methylmorpholino)-6,6-dioxido-5,7-dihydrothieno[3,4-d]pyrimidin-2-yl)phenyl)urea] | < 100 | < 100 |  | 251
CC1c2nc(-c3ccc(NC(=O)NC4CC4)cc3)nc(N3CCOC[C@@H]3C)c2C(C)S1(=O)=O (stereo partly drawn) [Example 44, 1-cyclopropyl-3-(4-(5,7-dimethyl-4-((S)-3-methylmorpholino)-6,6-dioxido-5,7-dihydrothieno[3,4-d]pyrimidin-2-yl)phenyl)urea] | < 100 | < 100 |  | 39.8
CCCNC(=O)Nc1ccc(-c2nc3c(c(N4CCOC[C@@H]4C)n2)C(C)S(=O)(=O)C3)cc1 (stereo partly drawn) [Example 45, 1-(4-(5-methyl-4-((S)-3-methylmorpholino)-6,6-dioxido-5,7-dihydrothieno[3,4-d]pyrimidin-2-yl)phenyl)-3-propylurea] | < 100 | < 100 |  | 398
CNC(=O)Nc1ccc(-c2nc(N3CCOC[C@@H]3C)c3c(n2)C(C)(C)S(=O)(=O)C3)cc1F [Example 65, (S)-1-(4-(7,7-dimethyl-4-(3-methylmorpholino)-6,6-dioxido-5,7-dihydrothieno[3,4-d]pyrimidin-2-yl)-2-fluorophenyl)-3-methylurea] | < 100 | 100 to 1000 | > 10000 | 

Continued, values first:

IC50 [1] [nM] | IC50 [2] [nM] | IC50 [3] [nM] | IC50 [4] [nM] | SMILES
< 100 | < 100 | > 10000 |  | CCNC(=O)Nc1ccc(-c2nc3c(c(N4CC5CCC(C4)O5)n2)CS(=O)(=O)C3)cc1 [Example 15, 1-(4-(4-(8-oxa-3-azabicyclo[3.2.1]octan-3-yl)-6,6-dioxido-5,7-dihydrothieno[3,4-d]pyrimidin-2-yl)phenyl)-3-ethylurea]
< 100 | 100 to 1000 | > 10000 |  | CC1c2c(nc(-c3ccc(NC(=O)NC4CC4)cc3)nc2N2CCOCC2)CS1(=O)=O (stereo not drawn) [Example 31, 1-cyclopropyl-3-(4-(5-methyl-4-morpholino-6,6-dioxido-5,7-dihydrothieno[3,4-d]pyrimidin-2-yl)phenyl)urea]
< 100 | < 100 | > 10000 |  | CCC1COCCN1c1nc(-c2ccc(NC(=O)NC3CC3)cc2)nc2c1C(C)S(=O)(=O)C2 (stereo not drawn) [Example 32, 1-cyclopropyl-3-(4-(4-(3-ethylmorpholino)-5-methyl-6,6-dioxido-5,7-dihydrothieno[3,4-d]pyrimidin-2-yl)phenyl)urea]
< 100 | < 100 | > 10000 |  | C[C@H]1COCCN1c1nc(-c2ccc(NC(=O)Nc3ccncc3)cc2)nc2c1CS(=O)(=O)C2 [Example 35, (S)-1-(4-(4-(3-methylmorpholino)-6,6-dioxido-5,7-dihydrothieno[3,4-d]pyrimidin-2-yl)phenyl)-3-(pyridin-4-yl)urea]
< 100 | < 100 |  | 158 | CCNC(=O)Nc1ccc(-c2nc3c(c(N4CCOC[C@@H]4C)n2)C(C)S(=O)(=O)C3)cc1 (stereo partly drawn) [Example 38, 1-ethyl-3-(4-(5-methyl-4-((S)-3-methylmorpholino)-6,6-dioxido-5,7-dihydrothieno[3,4-d]pyrimidin-2-yl)phenyl)urea]
< 100 | < 100 |  | 100 | CCNC(=O)Nc1ccc(-c2nc3c(c(N4CCOC[C@@H]4C)n2)[C@@H](C)S(=O)(=O)C3)cc1 [Example 39, 1-ethyl-3-(4-((R)-5-methyl-4-((S)-3-methylmorpholino)-6,6-dioxido-5,7-dihydrothieno[3,4-d]pyrimidin-2-yl)phenyl)urea]
< 100 | < 100 |  | 200 | CCNC(=O)Nc1ccc(-c2nc3c(c(N4CCOC[C@@H]4C)n2)[C@H](C)S(=O)(=O)C3)cc1 [Example 40, 1-ethyl-3-(4-((S)-5-methyl-4-((S)-3-methylmorpholino)-6,6-dioxido-5,7-dihydrothieno[3,4-d]pyrimidin-2-yl)phenyl)urea]
